Columns and labels:
[1] = tested on: patients recovering from hip or knee replacement operations; assay: Anecdotal results from non-cardiac surgery with general anaesthesia; format: in vivo, human
From the text: For example, a person underwent two hip replacement operations, five months apart. With the second operation, they began taking oral ribose immediately after their recovery from anaesthesia. Their recovery to a feeling of alertness and energy was more rapid than after the first operation. Furthermore, their level of pain was less. Likewise, a person also underwent two knee replacement operations. With the second operation, they self-administered D-Ribose pre- and postoperatively. Their recovery to a feeling of alertness and energy was more rapid than after the first operation. Bauer et al. (Z. Geb. Neonatal 2001 May-June, 205(3):80-85) studied the efficacy of oral glucose for treating procedural pain in neonates. […] The authors proposed that the orogustatory stimulation by the sweet taste caused an endorphin release. It is not known whether the result seen was due to the local effect or to a systemic effect of glucose.

[2] = tested on: adult patients selected for OCBP revascularization; assay: Presurgical oral D-ribose loading before off cardiopulmonary bypass (OCBP) revascularization: cardiac indices; format: in vivo, human; conditions: 24 patients oral D-ribose preoperatively vs 20 without; baseline to post-operative; p<0.028
From the text: Patients with stable coronary artery disease or patients presenting with acute myocardial infarction may undergo revascularization using an “off” cardiopulmonary bypass procedure (“OCBP”). This procedure avoids the deleterious effects of cross-clamping in patients who can be selected for the procedure. The selection criteria include: accessibility of the grafts; number of the grafts; condition of the patient. When the area to be revascularized is at the back of the heart, the heart will need to be handled and rotated, which would interfere with the beating of the heart. If several grafts are needed, the time of operation is prolonged and the patient's heart will need to support circulation for a long time. Finally, a poorly functioning heart will need the assistance of the pump to support circulation. Nevertheless, in properly selected patients, the benefits of avoiding cross-clamping are substantial.
Forty-four adult patients were enrolled in a trial. At least one-third of the patents had sustained an acute myocardial infarction prior to presentation and pre-operative ejection fractions ranged from 30-72%. All patients were selected for OCBP revascularization with 20 patients consuming no pre-operative ribose and 24 patients given oral D-ribose preoperatively, cardiac indices were measured at baseline and post-operatively. […]

[3] = tested on: patients undergoing valve surgery plus CABG or CABG alone with aortic cross clamping; assay: Double-blind placebo-controlled clinical trial of intravenous D-Ribose in cardiac surgery: ejection fraction by echocardiography; format: in vivo, human; conditions: placebo EF declined; ANOVA repeated measures p=0.04
From the text: A protocol was devised to test whether human subjects undergoing either valve surgery plus coronary artery bypass graft (CABG) or CABG alone with decreased heart function would benefit from the administration of ribose following heart surgery as did the healthy dogs of the Foker study. […] Inclusion criteria were: • Males or females aged 18 or older • Patients with documented coronary artery disease undergoing CABG with an ejection fraction (EF) of ≦35% based on echocardiography, radionuclide imaging or cardiac catheterization done within eight weeks of surgery. […] For both the transesophageal and transthoracic echocardiograms, the following long axis and short axis mid-papillary area changes were measured in triplicate by acoustic quantification techniques: end diastolic area (EDA), end systolic area (ESA), fractional area change (FAC), +dA/dt and -dA/dt. All area change data were also analyzed by manual off line analysis. EF was also determined off line using a long axis view. In addition, regional wall motion was quantified as the following: normal=1, hypokinetic=2, akinetic=3 and dyskinetic=4. The wall motion index score (WMIS) and percentage normal myocardium were calculated by reading a maximum of sixteen segments. […]

[4] = tested on: healthy dog hearts; conditions: D-Ribose from reperfusion for at least four days; U.S. Pat. No. 4,719,201; cited from earlier work
[5] = Blood glucose monitoring and clinical laboratory safety in the intravenous D-Ribose cardiac surgery trial; format: in vivo, human
Method: Blood glucose levels were determined hourly, after initiation of the study drug infusion, by dextrastix (Accu-Chk III, Boehringer Mannheim Corp. Indianapolis Ind.) using blood from an intraarterial catheter. If the blood glucose level remained stable for 12 hours, then subsequent blood glucose levels were measured every 4 to 6 hours until the study drug infusion was stopped. Other clinical laboratory measurements including complete CBC with differential, platelet count, electrolytes=, liver function studies, serum osmolarity, and urinalysis were completed the morning following surgery. Abnormal laboratory tests were repeated as clinically indicated until normal or determined not to be clinically significant.
Five patients (28%) in the ribose treated group developed hypoglycemia (fingerstick glucose<70 mg/dl)) a known side effect of this pentose sugar. No placebo treated patients developed hypoglycemia. The mean glucose level in those patients developing hypoglycemia was 58 mg/dl. The lowest glucose level was 31 mg/dl. […] The study drug infusion was stopped in two subjects because of hypoglycemia. […] There were no statistical differences in the other clinical laboratory measurements.

[6] = tested on: Wistar rats; assay: Planned non-cardiac sham abdominal surgery study under halothane anaesthesia; format: in vivo, rat; conditions: D-Ribose before, during and after sham operation
Method: Littered-paired Wistar rats will be preconditioned with oral D-Ribose (250 mg/day, 10 animals) as a test drug or D-Glucose(250 mg/day, 10 animals) as a placebo for five days. Following the preconditioning, the rats will be anesthetized with halothane, intubated for artificial respiration and paralyzed with curare. Following general anaesthesia, the rats will be given either the test drug or placebo, intravenously (IV). A two-inch abdominal incision will be made and the viscera will be carefully manipulated to simulate an abdominal exploratory surgery. The incision will be closed and the animals will be held under anaesthesia for one additional hour. Following that hour, anaesthesia will be discontinued and the IV infusion will be halted. The animals will be placed individually in activity cages and their activity will be assessed daily for five days. Test drug or placebo will be added to the drinking water at a dosage of 5% wt/vol. The blinded results will be observed for: first movement (return to consciousness following the sham operation) and daily activity over the first day and next five days. Food and water intake and gastrointestinal function will be measured.

[7] = tested on: cross-bred sheep
[8] = tested on: patients with aortic valve disease undergoing AVR; assay: Planned clinical trial: preconditioning with oral D-Ribose before cross clamping, then intravenous infusion; format: in vivo, human; conditions: oral D-Ribose 7 or 14 days before surgery, then i.v. 100 mg/kg/hour for five days
From the text: A single-center, randomized, double-blinded placebo-controlled clinical trial was designed to determine if preoperative oral administration of D-Ribose, following by peri-operative and operative intravenous infusion of D-Ribose could improve the ejection fraction and other functional parameters of hearts that are cross-clamped for various cardiac surgical procedures. Thirty (30) patients meeting the inclusion and exclusion criteria and who have signed informed consent forms will be randomized to receive oral D-Ribose (15) or D-Glucose (placebo) (15) for seven or 14 days prior to their surgical procedure and intravenous 5% […] (5% D-Glucose in normal saline, 0.5 mL/kg/hour) or 10% pyrogen-free D-Ribose in 5% D5W at a dose of 100 mg/kg/hour for five (5) days through a pulmonary artery cordis) beginning at the time of aortic cross clamping. […] Patients will be evaluated baseline ×2, (once prior to beginning oral test supplement and again within three days prior to surgical procedure), during and after surgery, and at days 1, 5 and 7. […] Patients will be evaluated for eligibility within three days to first test article administration and evaluation will be updated within three days prior to surgery. […] A medication history will be taken and all medications recorded in the case report. […]

[9] = tested on: rats; conditions: halothane for 30 minutes; Hendricks et al. 1984; cited from earlier work

SMILES | recovery to a feeling of alertness and energy compared with first operation ([1]; oral ribose at second operation, single patients) | level of pain compared with first operation ([1]; person, oral ribose after second hip replacement) | greater increase in cardiac indices compared to controls [2] | course of EF from baseline to Day 7 versus placebo [3] | ATP recovery after global myocardial ischemia [4] | patients with neurological or other clinical symptoms associated with hypoglycemia ([5]; hypoglycemic patients of the ribose treated group) | lowest glucose level ([5]; ribose treated group) | mean glucose level in patients developing hypoglycemia ([5]; ribose treated group) | patients who developed hypoglycemia (fingerstick glucose<70 mg/dl) ([5]; ribose treated group, five patients, none in placebo) | expected activity during the following five days versus placebo [6] | expected first movement after anaesthesia versus placebo [6] | time to cardiac arrest with cardioplegia containing ribose versus animals not given ribose ([7]; difference not statistically significant) | tolerability of supplemental ribose ([7]; in vivo) | time quiet and inactive after extubation ([7]; untreated series: additional 2 hours) | time to assume a consciousness state versus animals not given ribose ([7]; upon weaning from the ventilator) | expected myocardial function versus placebo [8] | behavioural effects during the first week after anaesthesia [9]
O=C[C@H](O)[C@H](O)[C@H](O)CO [D-Ribose] | more rapid | less | 49% | EF was maintained | enhanced ATP recovery | None | 31 mg/dL | 58 mg/dL | 28% | increased activity | earlier movement | somewhat faster | no metabolic or chemical abnormalities | about one | faster | better myocardial function | 
FC(F)(F)C(Cl)Br (centres unmarked) [halothane] |  |  |  |  |  |  |  |  |  |  |  |  |  |  |  |  | reduced spontaneous activity and neurological deficit

Source: US20090197818A1, “Use Of Ribose for Recovery From Anaesthesia” (priority 2004, published 2009)
